Experimental data from US20150284375A1 (AJINOMOTO CO., INC., priority 2012, published 2015).
Where two headings read alike, the source gives them in different places.

Biological target: T1, human TRPA1 (Homo sapiens, UniProt O75762)
T1 construct: expressed in transfected cells; host or cells: Human embryonic kidney-derived 293T cells, transiently transfected with the pcDNA3.1/zeo(+) human TRPA1 plasmid
Assay: Measurement of TRPA1 antagonist activity (intracellular calcium increase, FLIPR, allylisothiocyanate stimulation)
Type: cell-based
Conditions: read-out: antagonism hTRPA1
Summary of the method: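 IC50 derives from a sigmoid fit of inhibition of the 5-min FLIPR fluorescence change evoked by 20 μM allylisothiocyanate, normalized between agonist and buffer responses. Test substance, diluted in HBSS/20 mM HEPES pH 7.2 plus 0.1% BSA, was applied 10 min beforehand at room temperature to Calcium4-loaded 293T cells transiently expressing human TRPA1.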

[1] = 293T cells transfected with human TRPA1, allylisothiocyanate 20 μM, concentration for 50% inhibitory rate
[2] = allylisothiocyanate 20 μM stimulation, FLIPR calcium assay

T1 sequence (O75762 whole entry): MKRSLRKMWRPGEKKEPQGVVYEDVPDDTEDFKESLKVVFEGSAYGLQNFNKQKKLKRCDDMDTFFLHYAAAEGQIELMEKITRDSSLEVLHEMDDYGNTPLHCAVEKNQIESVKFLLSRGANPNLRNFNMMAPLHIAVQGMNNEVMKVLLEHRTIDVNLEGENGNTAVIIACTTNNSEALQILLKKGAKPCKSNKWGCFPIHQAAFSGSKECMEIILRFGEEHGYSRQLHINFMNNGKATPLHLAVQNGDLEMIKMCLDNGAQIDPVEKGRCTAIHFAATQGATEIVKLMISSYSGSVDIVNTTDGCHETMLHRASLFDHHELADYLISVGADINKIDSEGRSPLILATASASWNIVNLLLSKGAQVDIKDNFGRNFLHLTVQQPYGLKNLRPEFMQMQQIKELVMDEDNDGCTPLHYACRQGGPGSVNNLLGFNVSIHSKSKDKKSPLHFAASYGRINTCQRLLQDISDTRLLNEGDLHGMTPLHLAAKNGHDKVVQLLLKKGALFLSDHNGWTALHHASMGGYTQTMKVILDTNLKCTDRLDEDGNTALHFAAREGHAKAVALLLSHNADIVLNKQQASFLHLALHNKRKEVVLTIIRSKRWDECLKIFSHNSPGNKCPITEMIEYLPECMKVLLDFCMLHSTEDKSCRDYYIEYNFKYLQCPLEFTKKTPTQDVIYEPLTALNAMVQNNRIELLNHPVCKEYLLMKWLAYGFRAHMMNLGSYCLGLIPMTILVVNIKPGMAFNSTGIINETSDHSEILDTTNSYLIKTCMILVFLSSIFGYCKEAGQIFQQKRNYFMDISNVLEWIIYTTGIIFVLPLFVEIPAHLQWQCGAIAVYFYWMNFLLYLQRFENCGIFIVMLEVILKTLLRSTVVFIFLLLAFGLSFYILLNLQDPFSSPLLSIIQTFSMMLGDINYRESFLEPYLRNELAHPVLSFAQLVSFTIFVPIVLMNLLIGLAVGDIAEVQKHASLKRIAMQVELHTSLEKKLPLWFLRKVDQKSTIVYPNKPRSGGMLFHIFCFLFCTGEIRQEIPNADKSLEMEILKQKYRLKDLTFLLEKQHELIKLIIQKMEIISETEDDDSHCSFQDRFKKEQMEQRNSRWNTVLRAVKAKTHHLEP

Compound | IC50 [1] [nM] | IC50 [2] [nM]
O=C(NCc1ccccc1COc1ccc(C(F)(F)F)cc1)[C@@H]1CCCN1S(=O)(=O)c1ccc(Cl)s1 [Example 80] | 270 | 
O=C(NCc1ccccc1COc1cccc(C(F)(F)F)c1)[C@@H]1CCCN1S(=O)(=O)c1ccc(Cl)s1 [Example 81] | 580 | 
O=C(NCc1ccc(COc2ccccc2)cc1)[C@@H]1CCCN1S(=O)(=O)c1ccc(F)cc1 [Example 82, (2S)-1-[(4-fluorophenyl)sulfonyl]-N-{[4-(phenoxymethyl)phenyl]methyl}pyrrolidine-2-carboxamide] | 1200 | 
O=C(NCc1ccc(COc2ccccc2)cc1)[C@@H]1C=CCN1S(=O)(=O)c1ccc(Cl)s1 [Example 83] | 430 | 
O=C(NCc1ccc(COc2ccccc2)cc1)[C@@H]1CCCN1S(=O)(=O)c1ccc(F)c(F)c1 [Example 84] | 1100 | 
O=C(NCc1ccc(COc2ccccc2)cc1)[C@@H]1CCCN1S(=O)(=O)c1cccc(F)c1 [Example 85] | 3500 | 
O=C(NCc1ccc(COc2ccccc2)cc1)[C@@H]1CCCN1S(=O)(=O)c1cccs1 [Example 86] | 7000 | 
O=C(NCc1ccc(COc2ccccc2)cc1)[C@@H]1CC(O)CN1S(=O)(=O)c1ccc(Cl)s1 (some centres unmarked) [Example 87] | 7700 | 
O=C(NCc1nc(COc2ccc(C(F)(F)F)cc2)cs1)[C@@H]1CCCN1S(=O)(=O)c1ccc(Cl)s1 [Example 88] | 370 | 
O=C(NCc1nc(COc2cccc(C(F)(F)F)c2)cs1)[C@@H]1CCCN1S(=O)(=O)c1ccc(Cl)s1 [Example 89] | 340 | 
O=C(NCc1nc(COc2ccccc2C(F)(F)F)cs1)[C@@H]1CCCN1S(=O)(=O)c1ccc(Cl)s1 [Example 90] | 150 | 
O=C(NCc1ccc(OCc2ccccc2)cc1)[C@@H]1CCCN1S(=O)(=O)c1ccc(Cl)s1 [Example 91] | 94 | 
O=C(NCc1ccc(OCc2ccc(C(F)(F)F)cc2)cc1)[C@@H]1CCCN1S(=O)(=O)c1ccc(Cl)s1 [Example 92] | 110 | 
O=C(NCc1ccc(OCc2cccc(C(F)(F)F)c2)cc1)[C@@H]1CCCN1S(=O)(=O)c1ccc(Cl)s1 [Example 93] | 4200 | 
O=C(NCc1ccc(OCc2ccccc2C(F)(F)F)cc1)[C@@H]1CCCN1S(=O)(=O)c1ccc(Cl)s1 [Example 94] | 370 | 
O=C(NCc1cccc(OCc2ccccc2)c1)[C@@H]1CCCN1S(=O)(=O)c1ccc(Cl)s1 [Example 95] | 22 | 
O=C(NCc1cccc(OCc2ccc(C(F)(F)F)cc2)c1)[C@@H]1CCCN1S(=O)(=O)c1ccc(Cl)s1 [Example 96] | 19 | 
O=C(NCc1cccc(OCc2ccc(OC(F)(F)F)cc2)c1)[C@@H]1CCCN1S(=O)(=O)c1ccc(Cl)s1 [Example 97] | 30 | 
O=C(NCc1cccc(OCc2ccc(Cl)cc2)c1)[C@@H]1CCCN1S(=O)(=O)c1ccc(Cl)s1 [Example 98] | 10 | 
O=C(NCc1cccc(OCc2ccc(F)cc2)c1)[C@@H]1CCCN1S(=O)(=O)c1ccc(Cl)s1 [Example 99] | 12 | 
O=C(NCc1cccc(OCc2cccc(C(F)(F)F)c2)c1)[C@@H]1CCCN1S(=O)(=O)c1ccc(Cl)s1 [Example 100] | 8.9 | 

Compound | IC50 [1] [nM] | IC50 [2] [nM]
O=C(NCc1cccc(OCc2cccc(OC(F)(F)F)c2)c1)[C@@H]1CCCN1S(=O)(=O)c1ccc(Cl)s1 [Example 101] | 16 | 
O=C(NCc1cccc(OCc2cccc(Cl)c2)c1)[C@@H]1CCCN1S(=O)(=O)c1ccc(Cl)s1 [Example 102] | 15 | 
O=C(NCc1cccc(OCc2cccc(F)c2)c1)[C@@H]1CCCN1S(=O)(=O)c1ccc(Cl)s1 [Example 103] | 15 | 
O=C(NCc1cccc(OCc2ccccc2C(F)(F)F)c1)[C@@H]1CCCN1S(=O)(=O)c1ccc(Cl)s1 [Example 104] | 80 | 
O=C(NCc1ccc(F)c(OCc2ccc(C(F)(F)F)cc2)c1F)[C@@H]1CCCN1S(=O)(=O)c1ccc(Cl)s1 [Example 105] | 130 | 
O=C(NCc1c(F)ccc(OCc2ccc(C(F)(F)F)cc2)c1Cl)[C@@H]1CCCN1S(=O)(=O)c1ccc(Cl)s1 [Example 106] | 1200 | 
O=C(NCc1cccc(OCc2ccccc2)c1)[C@@H]1C=CCN1S(=O)(=O)c1ccc(Cl)s1 [Example 107, (2S)—N-[(3-benzyloxyphenyl)methyl]-1-(5-chlorothiophene-2-sulfonyl)-2,5-dihydropyrrole-2-carboxamide] | 14 | 
O=C(NCc1cccc(OCc2ccccc2)c1)[C@@H]1CCCN1S(=O)(=O)c1ccc(F)cc1 [Example 108] | 66 | 
O=C(NCc1cccc(OCc2ccccc2)c1)[C@@H]1CCN1S(=O)(=O)c1ccc(Cl)s1 [Example 109] | 120 | 
O=C(NCc1cccc(OCc2ccccc2)c1)[C@@H]1CCCN1S(=O)(=O)c1ccc(F)c(F)c1 [Example 110] | 76 | 
O=C(NCc1cccc(OCc2ccc(C(F)(F)F)cc2)c1)[C@@H]1C=CCN1S(=O)(=O)c1ccc(F)cc1 [Example 111] | 24 | 
O=C(NCc1cccc(OCc2ccc(C(F)(F)F)cc2)c1)[C@@H]1CCN1S(=O)(=O)c1ccc(F)cc1 [Example 112] | 230 | 
O=C(NCc1cccc(OCc2ccc(C(F)(F)F)cc2)c1)[C@@H]1CCCN1S(=O)(=O)c1ccc(Cl)cc1 [Example 113] | 71 | 
O=C(NCc1cccc(Oc2ccnc(C(F)(F)F)c2)c1)[C@@H]1CCCN1S(=O)(=O)c1ccc(F)cc1 [Example 114, (2S)-1-(4-fluorophenyl)sulfonyl-N-[[3-[[2-(trifluoromethyl)-4-pyridyl]oxy]phenyl]methyl]pyrrolidine-2-carboxamide] |  | 570
O=C(NCc1cccc(Oc2ccc(C(F)(F)F)nc2)c1)[C@@H]1CCCN1S(=O)(=O)c1ccc(F)cc1 [Example 115, (2S)-1-(4-fluorophenyl)sulfonyl-N-[[3-[[6-(trifluoromethyl)-3-pyridyl]oxy]phenyl]methyl]pyrrolidine-2-carboxamide] |  | 210
CN(C)c1cccc(Oc2cccc(CNC(=O)[C@@H]3CCCN3S(=O)(=O)c3ccc(F)cc3)c2)c1 [Example 116, (2S)-N-[[3-[3-(dimethylamino)phenoxy]phenyl]methyl]-1-(4-fluorophenyl)sulfonyl-pyrrolidine-2-carboxamide] |  | 1300
CN(C)c1ccc(Oc2cccc(CNC(=O)[C@@H]3CCCN3S(=O)(=O)c3ccc(F)cc3)c2)cc1 [Example 117, (2S)-N-[[3-[4-(dimethylamino)phenoxy]phenyl]methyl]-1-(4-fluorophenyl)sulfonyl-pyrrolidine-2-carboxamide] |  | 9900
N#Cc1ccc(Oc2cccc(CNC(=O)[C@@H]3CCCN3S(=O)(=O)c3ccc(F)cc3)c2)cc1 [Example 118, (2S)-N-[[3-(4-cyanophenoxy)phenyl]methyl]-1-(4-fluorophenyl)sulfonyl-pyrrolidine-2-carboxamide] |  | 270
CC(C)(C)c1ccc(Oc2cccc(CNC(=O)[C@@H]3CCCN3S(=O)(=O)c3ccc(F)cc3)c2)cc1 [Example 119, (2S)-N-[[3-(4-tert-butylphenoxy)phenyl]methyl]-1-(4-fluorophenyl)sulfonyl-pyrrolidine-2-carboxamide] |  | 1000
O=C(NCc1cccc(OCc2ccc(Cl)cc2)c1)[C@@H]1CCCN1S(=O)(=O)c1ccc(F)cc1 [Example 120, (2S)-N-[[3-[(4-chlorophenyl)methoxy]phenyl]methyl]-1-(4-fluorophenyl)sulfonyl-pyrrolidine-2-carboxamide] |  | 17
